Measurements reported in patent publication US6989396B2, “Tropane alkaloid multidrug resistance inhibitors from Erythroxylum pervillei and use of the same” (The Board of Trustees of the University of Illinois, priority 2001, dated 2006).
pIC50, pKi: −log10 of the molar value. Values joined by “and” are separate entries in the source; they are usually repeats but may differ in a detail not shown here. Identical values can stand only once. Like-named read-outs stand apart in the source and are kept apart here. Marks after values point to notes of the source that are not given here.

Key:
KB-V1 cells [1] = experiment: Reversal of MDR, cell survival assay: KB-V1 with or without vinblastine; format: cell-based, human; conditions: for pIC50: Homo sapiens, KB-V1, 72 hours
Procedure: One part of a natural product drug discovery program involves monitoring the potential of plant extracts to reverse multiple drug resistance. […] To investigate the potential of plant extracts or compounds to reverse multidrug-resistance, KB-V1 cells are treated with different concentrations of plant extracts or compounds in the presence (1 μg/ml) or absence of vinblastine.
Cytotoxic potential. The cytotoxic potential of test substances with KB-3, KB-V1 and KB-8-5 cells was determined as described previously (24). Briefly, various concentrations of test compounds (dissolved in 10 μl of 10% DMSO) were transferred to 96-well plates, and 190 μl aliquots of cell suspensions (5×10^4 cells/ml) were added to each well. The plates then were incubated for 72 hours at 37° C. (100% humidity with a 5% CO2 atmosphere in air), and 100 μl of cold 20% aqueous trichloroacetic acid were added to the growth medium in each well to fix the cells. The cultures were incubated at 4° C. for 30 minutes, washed, air-dried, stained with sulforhodamine B solution, and washed with 1% acetic acid. […] In each case, a zero-day control was performed by adding an equivalent number of cells to several wells and incubating at 37° C. for 30 minutes, and processing as described above. Optical density values obtained with the zero-day control were subtracted, and cell survival, relative to control (solvent-treated) cultures, was calculated. The cytotoxic potential of the compounds with CEM and CEM/VLB100 cells was determined as described by Beck et al. (30). Cells were grown in 24-well plates at a density of 5–6×10^5 cells/ml. At 48 hours, the cell number was determined using a Coulter Counter, with a channelizer to distinguish cells from debris.

[2] = biological target: T1, Pgp (KB-V1 cell membrane vesicles) (Homo sapiens, UniProt P08183); experiment: [3H]Vinblastine accumulation with KB-V1 cell membrane vesicles; format: binding
T1 construct: Cell membrane vesicles were prepared from KB-V1 cells following literature procedures; endogenous in cells; host or cells: KB-V1 cells (vinblastine-selected multidrug-resistant KB line); plasma membrane vesicles
Procedure: [^3H]Vinblastine accumulation with KB-V1 vesicles. Cell membrane vesicles were prepared from KB-V1 cells following literature procedures (31, 32) with some modifications. Medium was removed from KB-V1 cells in log growth phase (about 80% confluence) and the cells were rinsed with ice-cold PBS followed by ice-cold PBS containing 2 mM EDTA. Aprotinin (1 mg/ml) was then added, and, after a 10 minutes incubation at room temperature, the cells were harvested by gentle aspiration with a serological pipette and collected by centrifugation (100×g for 5 minutes). The cells were suspended in 0.25 M sucrose buffer (0.01 M Tris-HCl, pH 7.5, containing 0.25 M sucrose, 0.2 mM CaCl2, 1 mM EDTA) and homogenized with a Polytron at 2,500 rpm for 30 seconds. […] The homogenate then was diluted with four volumes of 0.025 M sucrose solution (0.01 M Tris-HCl, pH 7.5, containing 0.025 M sucrose) and centrifuged (1,000×g for 10 minutes). […] The interface (about 5 ml) was collected and diluted with four volumes of 0.25 M sucrose, 0.01 M Tris-HCl, pH 7.5, and centrifuged at 100,000×g for 1 hour. The resulting vesicle pellet was suspended in PBS containing 1 mM phenylmethylsulfonyl fluoride, using a 25-gauge needle, and stored at −80° C. Protein content was determined using a bicinchoninic acid protein assay kit with BSA as a standard (33).
Vinblastine accumulation with membrane vesicles assays were performed in 96-well plates as described previously (23, 24). […] Various concentrations of test samples, dissolved in 5 μl of DMSO, were then added (final volume, 100 μl), and incubations were conducted at ambient temperature for 20 minutes. For kinetic studies, various concentrations of [^3H]vinblastine were used. Reactions were terminated by aspirating the contents of each well onto a glass filter filter (printed type A filtermats, Wallac) using a 96-well harvester (Harvester 96, Tomtec). […] Nonspecific binding was determined by performing similar incubations with reaction mixtures containing a 1,000-fold excess of unlabeled vinblastine. Nonspecific binding was subtracted from all total-binding data to yield specific binding.

KB-V1 cells [3] = experiment: In vivo hollow fiber test: KB-V1; design: species or system NCr nu/nu mice
[4] = test system: SW626, human ovarian adenocarcinoma; experiment: In vitro cytotoxicity, human tumor panel: SW626; format: cell-based; conditions: SW626, read-out: ED50 SW626
Procedure: (§1) Cytotoxicity assay. Compounds 1–9 were evaluated for cytotoxic activity against a panel of human cancer cell lines, including KB-V1 in the presence and absence of VLB, according to an established protocol (68).

Lu1, lung cancer = experiment: In vitro cytotoxicity, human tumor panel: Lu1; format: cell-based; conditions: Homo sapiens, read-out: ED50 Lu1
Procedure: as §1

[5] = test system: SKOV3 (ovarian adenocarcinoma); experiment: Cytotoxicity in ovarian adenocarcinoma SKOV3 (pGp -ve); format: cell-based; conditions: Homo sapiens, SK-OV-3, read-out: IC50 SKOV3 (pGp − ve)
Procedure: as §1

[6] = vinblastine 1 μg/ml, listed as pervilleine A
[7] = summation of single-agent inhibitions

T1 sequence (P08183 whole entry): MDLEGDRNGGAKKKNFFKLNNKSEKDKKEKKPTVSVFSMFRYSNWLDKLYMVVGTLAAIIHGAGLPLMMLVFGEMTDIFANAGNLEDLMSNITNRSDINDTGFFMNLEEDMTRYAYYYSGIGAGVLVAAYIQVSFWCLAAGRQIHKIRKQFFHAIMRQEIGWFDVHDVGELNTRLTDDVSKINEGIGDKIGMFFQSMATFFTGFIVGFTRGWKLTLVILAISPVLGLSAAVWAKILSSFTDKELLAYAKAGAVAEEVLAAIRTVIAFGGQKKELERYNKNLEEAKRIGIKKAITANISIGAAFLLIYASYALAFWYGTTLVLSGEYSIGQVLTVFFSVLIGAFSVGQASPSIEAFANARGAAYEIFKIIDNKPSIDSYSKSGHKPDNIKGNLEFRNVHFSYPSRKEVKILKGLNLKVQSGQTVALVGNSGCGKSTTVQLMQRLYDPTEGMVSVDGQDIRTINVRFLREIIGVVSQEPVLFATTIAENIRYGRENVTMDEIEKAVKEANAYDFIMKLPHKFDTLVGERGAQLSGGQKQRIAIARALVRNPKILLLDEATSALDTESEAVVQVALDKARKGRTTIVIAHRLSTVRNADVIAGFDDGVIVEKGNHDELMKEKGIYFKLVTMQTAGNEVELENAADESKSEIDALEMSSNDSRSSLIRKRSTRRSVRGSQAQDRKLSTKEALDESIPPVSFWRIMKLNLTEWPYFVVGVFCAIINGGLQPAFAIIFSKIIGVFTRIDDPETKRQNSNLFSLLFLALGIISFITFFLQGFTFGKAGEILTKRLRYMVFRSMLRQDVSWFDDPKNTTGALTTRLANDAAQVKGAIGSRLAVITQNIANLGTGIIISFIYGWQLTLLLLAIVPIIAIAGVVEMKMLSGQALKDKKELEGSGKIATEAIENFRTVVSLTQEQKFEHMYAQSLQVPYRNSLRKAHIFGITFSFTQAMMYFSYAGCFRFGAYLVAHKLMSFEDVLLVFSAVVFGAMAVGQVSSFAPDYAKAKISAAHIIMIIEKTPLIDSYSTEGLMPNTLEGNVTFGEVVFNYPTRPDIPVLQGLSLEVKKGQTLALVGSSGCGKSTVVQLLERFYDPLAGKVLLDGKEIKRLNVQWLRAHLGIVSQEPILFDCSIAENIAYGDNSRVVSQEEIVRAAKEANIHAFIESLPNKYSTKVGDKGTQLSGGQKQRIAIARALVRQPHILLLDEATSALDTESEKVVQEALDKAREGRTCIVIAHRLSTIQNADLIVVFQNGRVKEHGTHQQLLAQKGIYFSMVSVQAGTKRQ

SMILES: COc1cc(C=CC(=O)O[C@H]2[C@@H](O)[C@@H]3C[C@H](OC(=O)c4cc(OC)c(OC)c(OC)c4)C[C@H]2N3C)cc(OC)c1OC [Compound 3, 3α-(3,4,5-trimethoxybenzoyloxy)-6β-(3,4,5-trimethoxycinnamoyloxy)-7β-hydroxytropane]
- pIC50 (KB-V1 cells [1]; absence of vinblastine, read-out: IC50 KB-V1 (−)): < 4.47
- pIC50 (KB-V1 cells [1]; presence of vinblastine (1 μg/ml), read-out: IC50 KB-V1 (+)): 6.44
- Ratio of IC50 values KB-3/[KB-V1 (+)] (KB-V1 cells [1]; vinblastine 1 μg/ml, listed as Pervilleine A): 66.6^d
- Ratio of IC50 values KB-3/[KB-V1 (+)] (KB-V1 cells [1]; [6]): 66.6
- Ratio of IC50 values [KB-V1 (−)]/[KB-V1 (+)] (KB-V1 cells [1]; [6]): > 95
- fold reduction of [3H]vinblastine accumulation ([2]; 0–100 μM, 0.16 μM [3H]vinblastine): about 65 fold
- pIC50 ([2]; 0.16 μM [3H]vinblastine, 0.5 mM ATP, 20 minutes, ambient temperature): 5.42
- pKi ([2]; double-reciprocal plots, 0.015–0.16 μM [3H]vinblastine, read-out: Ki, competitive with respect to vinblastine binding): ~5.14 and 5.14
- mode of inhibition of vinblastine accumulation ([2]; kinetic analysis, double-reciprocal plots): competitive inhibition
- inhibition of cell growth when used in combination with vinblastine (KB-V1 cells [3]; KB-V1 or KB-8-5 cells in hollow fibers implanted into NCr nu/nu mice): up to 75%
- Calculated inhibition (vinblastine + reversing agent as single agents), KB-V1, i.p. site (KB-V1 cells [3]; [7]): 2%
- Calculated inhibition (vinblastine + reversing agent as single agents), KB-V1, s.c. site (KB-V1 cells [3]; [7]): 3.3%
- Observed inhibition from coadministration with vinblastine, KB-V1, s.c. site (KB-V1 cells [3]; vinblastine 250 μg/kg + reversing agent 0.136 mmol/kg): 14.6 (P = 0.188) %
- Observed inhibition from coadministration with vinblastine, KB-V1, i.p. site (KB-V1 cells [3]; vinblastine 250 μg/kg + reversing agent 0.136 mmol/kg, i.p. injection once daily days 3–6, listed as pervilleine A): 68.6 (P < 0.0001) %
- Growth inhibition, single agent, KB-V1, s.c. site (KB-V1 cells [3]; vinblastine 250 μg/kg, reversing agents 0.136 mmol/kg, i.p. injection once daily days 3–6): 3.3%
- Growth inhibition, single agent, KB-V1, i.p. site (KB-V1 cells [3]; vinblastine 250 μg/kg, reversing agents 0.136 mmol/kg, i.p. injection once daily days 3–6, fibers retrieved day 7, MTT): 1%
- IC50 [4]: > 20 mg/L
- IC50 (Lu1, lung cancer): > 20 mg/L
- pIC50 [5]: < 5.00
